# Measured values taken from PubChem BioAssay AID1259407 (Chemical Carcinogenesis Research Information System (CCRIS), 2018).
# The source made the active and inactive calls. How the calls were made is not given here.
# Tested on: CCRIS mutagenicity, Ames/micronucleus/aberration tests
# Test: CCRIS mutagenicity studies
# [1] = Test System: AMES SALMONELLA TYPHIMURIUM, Strain/Indicator: TA98, Metabolic Activation: NONE, Method: STANDARD PLATE
# [2] = Test System: AMES SALMONELLA TYPHIMURIUM, Strain/Indicator: TA100, Metabolic Activation: NONE, Method: STANDARD PLATE
# [3] = Test System: AMES SALMONELLA TYPHIMURIUM, Strain/Indicator: TA98, Metabolic Activation: NONE, Method: PREINCUBATION
# [4] = Test System: AMES SALMONELLA TYPHIMURIUM, Strain/Indicator: TA100, Metabolic Activation: NONE, Method: PREINCUBATION
# [5] = Test System: AMES SALMONELLA TYPHIMURIUM, Strain/Indicator: TA98, Metabolic Activation: RAT, LIVER, S-9, AROCLOR 1254, Method: STANDARD PLATE
# [6] = Test System: AMES SALMONELLA TYPHIMURIUM, Strain/Indicator: TA100, Metabolic Activation: RAT, LIVER, S-9, AROCLOR 1254, Method: STANDARD PLATE
# [7] = Test System: AMES SALMONELLA TYPHIMURIUM, Strain/Indicator: TA102, Metabolic Activation: NONE, Method: STANDARD PLATE
smiles,measurement,setting,value
c1ccc([C@H]2N[C@H]2c2ccccc2)cc1,mutagenic call,[1],inactive; negative
same,mutagenic call,[2],active; positive
same,mutagenic call,"Test System: AMES SALMONELLA TYPHIMURIUM, Strain/Indicator: TA1537, Metabolic Activation: NONE, Method: STANDARD PLATE",inactive; negative
CCC(=O)C(C)=O,mutagenic call,[3],inactive; negative
same,mutagenic call,"Test System: AMES SALMONELLA TYPHIMURIUM, Strain/Indicator: TA98, Metabolic Activation: RAT, LIVER, S-9, AROCLOR 1254, Method: PREINCUBATION",inactive; negative
same,mutagenic call,[4],inactive; negative
same,mutagenic call,"Test System: AMES SALMONELLA TYPHIMURIUM, Strain/Indicator: TA100, Metabolic Activation: RAT, LIVER, S-9, AROCLOR 1254, Method: PREINCUBATION",inactive; negative
same,mutagenic call,"Test System: AMES SALMONELLA TYPHIMURIUM, Strain/Indicator: TA102, Metabolic Activation: NONE, Method: PREINCUBATION",inactive; negative
same,mutagenic call,"Test System: AMES SALMONELLA TYPHIMURIUM, Strain/Indicator: TA102, Metabolic Activation: RAT, LIVER, S-9, AROCLOR 1254, Method: PREINCUBATION",inactive; negative
CO[C@@]1(NC(=O)CSC[C@@H](N)C(=O)O)C(=O)N2C(C(=O)O)=C(CSc3nnnn3C)CS[C@@H]21,mutagenic call,"Test System: AMES SALMONELLA TYPHIMURIUM, Strain/Indicator: TA98, Metabolic Activation: NONE",inactive; negative
same,mutagenic call,"Test System: AMES SALMONELLA TYPHIMURIUM, Strain/Indicator: TA98, Metabolic Activation: S-9",inactive; negative
same,mutagenic call,"Test System: AMES SALMONELLA TYPHIMURIUM, Strain/Indicator: TA100, Metabolic Activation: NONE",inactive; negative
same,mutagenic call,"Test System: AMES SALMONELLA TYPHIMURIUM, Strain/Indicator: TA100, Metabolic Activation: S-9",inactive; negative
same,mutagenic call,"Test System: AMES SALMONELLA TYPHIMURIUM, Strain/Indicator: TA1535, Metabolic Activation: NONE",inactive; negative
same,mutagenic call,"Test System: AMES SALMONELLA TYPHIMURIUM, Strain/Indicator: TA1535, Metabolic Activation: S-9",inactive; negative
same,mutagenic call,"Test System: AMES SALMONELLA TYPHIMURIUM, Strain/Indicator: TA1537, Metabolic Activation: NONE",inactive; negative
same,mutagenic call,"Test System: AMES SALMONELLA TYPHIMURIUM, Strain/Indicator: TA1537, Metabolic Activation: S-9",inactive; negative
same,mutagenic call,"Test System: AMES SALMONELLA TYPHIMURIUM, Strain/Indicator: TA1538, Metabolic Activation: NONE",inactive; negative
same,mutagenic call,"Test System: AMES SALMONELLA TYPHIMURIUM, Strain/Indicator: TA1538, Metabolic Activation: S-9",inactive; negative
same,mutagenic call,"Test System: E. COLI, Strain/Indicator: WP2 UVRA, Metabolic Activation: NONE",inactive; negative
same,mutagenic call,"Test System: E. COLI, Strain/Indicator: WP2 UVRA, Metabolic Activation: S-9",inactive; negative
c1ccc2c(c1)cc1c3c2ccc2cccc(c23)C1,mutagenic call,[1],inactive; negative
same,mutagenic call,[5],active; positive
same,mutagenic call,[6],active; positive
CN(N=O)C(=O)N[C@@H]1O[C@H](CO)[C@H](O)[C@H](O)[C@H]1O,mutagenic call,"Test System: CHINESE HAMSTER V-79, Strain/Indicator: V-79/8-AZAGUANINE, Metabolic Activation: NONE, Method: STANDARD PLATE",active; positive
CC(=O)Nc1cccc2cc(F)cnc12,mutagenic call,"Test System: AMES SALMONELLA TYPHIMURIUM, Strain/Indicator: TA100, Metabolic Activation: RAT, LIVER, S-9, PHENOBARBITAL AND 5,6-BENZOFLAVONE, Method: PREINCUBATION",active; positive
Cc1ncc([N+](=O)[O-])n1C,mutagenic call,"Test System: AMES SALMONELLA TYPHIMURIUM, Strain/Indicator: TA97, Metabolic Activation: NONE, Method: STANDARD PLATE",active; positive
same,mutagenic call,"Test System: AMES SALMONELLA TYPHIMURIUM, Strain/Indicator: TA97, Metabolic Activation: RAT, LIVER, S-9, AROCLOR 1254, Method: STANDARD PLATE",active; positive
same,mutagenic call,[1],active; positive
same,mutagenic call,[5],active; positive
same,mutagenic call,[2],active; positive
same,mutagenic call,[6],active; positive
same,mutagenic call,[7],active; positive
same,mutagenic call,"Test System: AMES SALMONELLA TYPHIMURIUM, Strain/Indicator: TA102, Metabolic Activation: RAT, LIVER, S-9, AROCLOR 1254, Method: STANDARD PLATE",active; positive
CC1(C)CC(C(=O)NC(CO)C(O)CO)C(C)(C)N1[O] (stereo not drawn),mutagenic call,[7],inactive; negative
same,mutagenic call,"Test System: AMES SALMONELLA TYPHIMURIUM, Strain/Indicator: TA102, Metabolic Activation: XANTHINE OXIDASE, Method: STANDARD PLATE",inactive; negative
same,mutagenic call,"Test System: AMES SALMONELLA TYPHIMURIUM, Strain/Indicator: TA104, Metabolic Activation: NONE, Method: STANDARD PLATE",inactive; negative
same,mutagenic call,"Test System: AMES SALMONELLA TYPHIMURIUM, Strain/Indicator: TA104, Metabolic Activation: XANTHINE OXIDASE, Method: STANDARD PLATE",inactive; negative
same,mutagenic call,"Test System: CHO, Strain/Indicator: CHO/6-THIOGUANINE, Metabolic Activation: NONE, Method: STANDARD PLATE",inactive; negative
same,mutagenic call,"Test System: CHO, Strain/Indicator: CHO/6-THIOGUANINE, Metabolic Activation: RAT, LIVER, S-9, AROCLOR 1254, Method: STANDARD PLATE",inactive; negative
same,mutagenic call,"Test System: CHO, Strain/Indicator: CHO/OUABAIN, Metabolic Activation: NONE, Method: STANDARD PLATE",inactive; negative
same,mutagenic call,"Test System: CHO, Strain/Indicator: CHO/OUABAIN, Metabolic Activation: RAT, LIVER, S-9, AROCLOR 1254, Method: STANDARD PLATE",inactive; negative
C=CC1CC2C=CC1C2 (stereo not drawn),mutagenic call,[3],inactive; negative
same,mutagenic call,"Test System: AMES SALMONELLA TYPHIMURIUM, Strain/Indicator: TA98, Metabolic Activation: RAT LIVER S-9, AROCLOR 1254, Method: PREINCUBATION",inactive; negative
same,mutagenic call,[4],inactive; negative
same,mutagenic call,"Test System: AMES SALMONELLA TYPHIMURIUM, Strain/Indicator: TA100, Metabolic Activation: RAT LIVER S-9, AROCLOR 1254, Method: PREINCUBATION",inactive; negative
same,mutagenic call,"Test System: AMES SALMONELLA TYPHIMURIUM, Strain/Indicator: TA1535, Metabolic Activation: NONE, Method: PREINCUBATION",inactive; negative
same,mutagenic call,"Test System: AMES SALMONELLA TYPHIMURIUM, Strain/Indicator: TA1535, Metabolic Activation: RAT LIVER S-9, AROCLOR 1254, Method: PREINCUBATION",inactive; negative
same,mutagenic call,"Test System: AMES SALMONELLA TYPHIMURIUM, Strain/Indicator: TA1537, Metabolic Activation: NONE, Method: PREINCUBATION",inactive; negative
same,mutagenic call,"Test System: AMES SALMONELLA TYPHIMURIUM, Strain/Indicator: TA1537, Metabolic Activation: RAT LIVER S-9, AROCLOR 1254, Method: PREINCUBATION",inactive; negative
same,mutagenic call,"Test System: AMES SALMONELLA TYPHIMURIUM, Strain/Indicator: TA1538, Metabolic Activation: NONE, Method: PREINCUBATION",inactive; negative
same,mutagenic call,"Test System: AMES SALMONELLA TYPHIMURIUM, Strain/Indicator: TA1538, Metabolic Activation: RAT LIVER S-9, AROCLOR 1254, Method: PREINCUBATION",inactive; negative
same,mutagenic call,"Test System: CHINESE HAMSTER OVARY, Strain/Indicator: CHO-K1-BH4 (HGPRT)/6-THIOGUANINE, Metabolic Activation: NONE",inactive; negative
same,mutagenic call,"Test System: CHINESE HAMSTER OVARY, Strain/Indicator: CHO-K1-BH4 (HGPRT)/6-THIOGUANINE, Metabolic Activation: RAT LIVER S-9, AROCLOR 1254",inactive; negative
O=[N+]([O-])c1cc2[nH]c3ccc4c(O)cccc4c3c2c2ccccc12,mutagenic call,[1],active; positive
same,mutagenic call,"Test System: AMES SALMONELLA TYPHIMURIUM, Strain/Indicator: TA98, Metabolic Activation: RAT, LIVER, S-9, 3-METHYLCHOLANTHRENE, Method: STANDARD PLATE",active; positive
same,mutagenic call,[2],active; positive
same,mutagenic call,"Test System: AMES SALMONELLA TYPHIMURIUM, Strain/Indicator: TA100, Metabolic Activation: RAT, LIVER, S-9, 3-METHYLCHOLANTHRENE, Method: STANDARD PLATE",active; positive
